Eleven compounds from patent publication US10435388B2, “Selective inhibitors of clinically important mutants of the EGFR tyrosine kinase” (CS PHARMATECH LIMITED, priority 2016, dated 2019) can be followed below.

Counter-ions that a name gives are not always drawn.

The subject of one test is A431 cells (WT). The test is described as follows: A431 inhibition assay (cell proliferation), Method B. The following applies: Homo sapiens, A-431, 72 h, cellular proliferation, several runs. It is filed as cell-based, human. On the procedure:
(§1) Cell Proliferation Assays—Method B
A431 Inhibition Assay, (Cell Proliferation).
The rest procedure was conducted in the same manner as described above for H1975 cells.

In the next test the target is T1, INSR (Homo sapiens, UniProt P06213).
T1 construct: purchased CARNA BIOSCIENCE 08-142
The test is described as follows: INSR inhibition assay (Caliper EZ Reader). It is filed as biochemical. The following applies: enzyme assay. The procedure:
(§2) Test compound was dissolved in DMSO at 30 mM. […] 20 nL of these compounds DMSO dilutes were dispensed into a new 384-well assay plate by Echo 550. […] 15 uL of kinase assay buffer containing INSR protein and substrate was transferred to assay plate and incubate at RT for 30 minutes. Kinase assay buffer supplemented with substrate peptides was employed as low control to monitor the background. 40 LM ATP was prepared in kinase assay buffer containing and 5 μL of ATP solution was added to each well to start the reaction. The assay plate was incubated at 25° C. for 180 minutes and the reaction was stopped by adding 40 μL of 0.5 M EDTA.
The result is analyzed in the same manner of […].

A further test addresses T2, IGF-1R (Homo sapiens, UniProt P08069).
T2 construct: purchased CARNA BIOSCIENCE 08-141
The test is described as follows: IGF-1R inhibition assay (Caliper EZ Reader). It is filed as biochemical. As to conditions: enzyme assay. The procedure: as §2, with “IGF-1R” for “INSR”, “μM” for “LM”
Phosphorylated fluorescent-tagged peptides were differentiated from non-phosphorylated peptides by separating using Caliper EZ Reader II and the detection was directly converted to conversion ratio.

Another test deals with H1975 cells (DM). The test is described as follows: H1975 inhibition assay (cell proliferation), Method B. It is filed as cell-based. As to conditions: cellular proliferation, several runs. The procedure: as §1
H1975 Inhibition Assay (Cell Proliferation).
(§3) Test compounds were dissolved in DMSO at 30 mM.
(§4) The final concentration was 1,000 cells/well. Add medium only as low control. […] 5% CO2 incubator for 72 hours.
(§5) After 72 hours incubation, remove the plates from incubator and equilibrate at room temperature for 15 minutes. Incubate the CellTiter Glo reagents (Promega, G9243) at 37° C. before the experiment. The buffer was equilibrated to room temperature and used to dissolve the substrate. To determine the cell viability, add 40 μL of CellTiter-Glo reagent into each well to be detected (at 1:1 to culture medium). Then the place the plates at room temperature for 30 min followed by read on EnSpire (PerkinElmer).
(§6) For estimation of IC50, the luminescence readout are transformed to % Inhibition by applying the following equation: The IC50 was then
(§7) [formula] calculated by fitting in XLFit to a four parameters logistic curve.

A further test relates to PC9 cells (SM). The test is described as follows: PC-9 growth inhibition assay (cell proliferation), Method B. It is filed as cell-based, human. The following applies: cellular proliferation, several runs. On the procedure: as §1, §3, §4, §5, §6, §7
PC-9 Growth Inhibition Assay (Cell Proliferation).
The inhibition assay of PC-9 cells was conducted in the same manner as described above for H1975 cells.

For test [1], the system named is PC9 cells (EGFR d746-750 single mutant). The test is described as follows: PC-9 growth inhibition assay (cell proliferation), Method A. It is filed as cell-based, human. As to conditions: Homo sapiens, PC-9; cellular proliferation, *tested by method A (Table 2); read-out: SM (PC9) IC50. The procedure:
(§8) Cell Proliferation Assays—Method A
(§9) The final concentration was 4,000 cells/well. Add medium only as low control.
(§10) Day-2: Test compounds were dissolved in DMSO at 0.2 mM (200×).
(§11) Day-5: After 72 hours incubation, remove the plates from incubator and equilibrate at room temperature for 15 minutes. Incubate the CellTiter Glo reagents (Promega, G9243) at 37° C. before the experiment. The buffer was equilibrated to room temperature and used to dissolve the substrate. To determine the cell viability, add 30 μL of CellTiter-Glo reagent into each well to be detected. Then shake the plates at room temperature for 10 min and followed by plate read on Envision (PerkinElmer).
as §6, §7
PC-9 Growth Inhibition Assay (Cell Proliferation)
The inhibition assay for PC-9 cells was processed in the same manner as described for the H1975 cells.

Test [2] has as its system NCI-H1975 cells (EGFR L858R/T790 double mutant). The test is described as follows: H1975 inhibition assay (cell proliferation), Method A. As to conditions: Homo sapiens, NCI-H1975; cellular proliferation, *tested by method A (Table 2); read-out: DM (H1975) IC50. It is filed as cell-based. On the procedure:
as §8
H1975 Inhibition Assay (Cell Proliferation)
as §9, §10, §11, §6, §7

T1 sequence (P06213 989-1382 limits assumed): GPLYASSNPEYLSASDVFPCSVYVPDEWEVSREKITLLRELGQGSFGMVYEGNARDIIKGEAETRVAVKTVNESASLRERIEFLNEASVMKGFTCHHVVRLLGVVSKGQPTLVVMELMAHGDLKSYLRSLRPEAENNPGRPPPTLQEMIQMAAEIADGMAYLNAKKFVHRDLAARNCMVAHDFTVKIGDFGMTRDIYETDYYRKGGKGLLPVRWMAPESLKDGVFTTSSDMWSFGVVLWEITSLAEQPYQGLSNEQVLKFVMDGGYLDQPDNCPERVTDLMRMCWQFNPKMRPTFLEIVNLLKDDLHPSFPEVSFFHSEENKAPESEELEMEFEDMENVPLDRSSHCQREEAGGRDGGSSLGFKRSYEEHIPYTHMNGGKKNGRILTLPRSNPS
T2 sequence (P08069 959-1367 limits assumed): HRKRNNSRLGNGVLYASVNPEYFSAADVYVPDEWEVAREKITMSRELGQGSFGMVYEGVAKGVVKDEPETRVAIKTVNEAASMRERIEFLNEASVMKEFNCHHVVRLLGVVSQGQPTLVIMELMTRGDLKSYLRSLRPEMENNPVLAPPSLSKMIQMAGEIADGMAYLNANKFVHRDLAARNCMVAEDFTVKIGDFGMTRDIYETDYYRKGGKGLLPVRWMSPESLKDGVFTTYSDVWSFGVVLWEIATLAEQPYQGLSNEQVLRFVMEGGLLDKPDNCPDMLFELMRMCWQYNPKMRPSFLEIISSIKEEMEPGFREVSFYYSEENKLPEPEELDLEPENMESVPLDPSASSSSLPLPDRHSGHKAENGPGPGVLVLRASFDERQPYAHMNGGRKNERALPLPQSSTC

As for `C=CC(=O)Nc1cc(Nc2nccc(-c3c[nH]c4c(C(N)=O)cccc34)n2)c(OC)cc1N(C)CCN(C)C` [Example 16, 3-(2-(5-Acrylamido-4-((2-(dimethylamino)ethyl)(methyl)amino)-2-methoxyphenylamino)pyrimidin-4-yl)-1H-indole-7-carboxamide], the half-maximal inhibitory concentration (IC50) is 0.121 µM in the test with A431 cells (WT); 4.76 nM on INSR; 3.94 nM at IGF-1R; 0.00072 µM in the test on H1975 cells (DM) (Homo sapiens, NCI-H1975, 72 h); 0.00076 µM in the test with PC9 cells (SM) (Homo sapiens, PC-9, 72 h).

In the case of `C=CC(=O)Nc1cc(Nc2nccc(-n3cc(S(N)(=O)=O)c4ccccc43)n2)c(OC)cc1N(C)CCN(C)C` [Example 17, N-(2-((2-(Dimethylamino)ethyl)(methyl)amino)-4-methoxy-5-(4-(3-sulfamoyl-1H-indol-1-yl)pyrimidin-2-ylamino)phenyl) acrylamide], the IC50 in the test with A431 cells (WT) was 0.162 µM; against INSR, 67.6 nM; against IGF-1R it was 71.2 nM; in the test on H1975 cells (DM) (Homo sapiens, NCI-H1975, 72 h), 0.00094 µM; in the test with PC9 cells (SM) (Homo sapiens, PC-9, 72 h), 0.00093 µM.

In the case of `C=CC(=O)Nc1cc(Nc2nccc(-n3nc(C(N)=O)c4ccccc43)n2)c(OC)cc1N(C)CCN(C)C` [Example 18, 1-(2-(5-Acrylamido-4-((2-(dimethylamino)ethyl)(methyl)amino)-2-methoxyphenylamino)pyrimidin-4-yl)-1H-indazole-3-carboxamide], the half-maximal inhibitory concentration (IC50) turned out to be 0.04 µM in the test on A431 cells (WT); 2.28 nM on INSR; 2.15 nM against IGF-1R; 0.00041 µM with H1975 cells (DM) (Homo sapiens, NCI-H1975, 72 h); 0.00064 µM in the test with PC9 cells (SM) (Homo sapiens, PC-9, 72 h).

On to `C=CC(=O)Nc1cc(Nc2nccc(-n3cc(CN)c4ccccc43)n2)c(OC)cc1N(C)CCN(C)C` [Example 19, N-(5-(4-(3-(Aminomethyl)-1H-indol-1-yl)pyrimidin-2-ylamino)-2-((2-(dimethylamino)ethyl)(methyl)amino)-4-methoxyphenyl) acrylamide], for which the IC50 was 0.0167 µM in test [1] and 0.0127 µM in test [2].

For the compound `C=CC(=O)Nc1cc(Nc2nccc(-n3nc(N)c4ccccc43)n2)c(OC)cc1N(C)CCN(C)C` [Example 20], the half-maximal inhibitory concentration (IC50) at INSR stood at 19.3 nM; on IGF-1R, 23.5 nM; with H1975 cells (DM) (Homo sapiens, NCI-H1975, 72 h), 0.00235 µM; in the test with H1975 cells (DM) (72 h) it was 0.00212 µM; with PC9 cells (SM) (Homo sapiens, PC-9, 72 h), 0.00192 µM; in the test with PC9 cells (SM) (72 h), 0.00154 µM.

Consider `C=CC(=O)Nc1cc(Nc2nccc(-n3cc(C(=O)O)c4ccccc43)n2)c(OC)cc1N(C)CCN(C)C` [Example 30, 1-(2-((5-Acrylamido-4-((2-(dimethylamino)ethyl)(methyl)amino)-2-methoxyphenyl)amino)pyrimidin-4-yl)-1H-indole-3-carboxylic acid], for which the half-inhibitory concentration (IC50) in the test with A431 cells (WT) is 1.68 µM; at INSR it was 206 nM; against IGF-1R it was 210 nM; in the test with H1975 cells (DM) (Homo sapiens, NCI-H1975, 72 h) it was 0.0204 µM; with PC9 cells (SM) (Homo sapiens, PC-9, 72 h), 0.0192 µM.

With `C=CC(=O)Nc1cc(Nc2nccc(-n3cc(C(=O)NC)c4ccccc43)n2)c(OC)cc1N(C)CCN(C)C` [Example 36, N-Methyl 1-(2-((5-acrylamido-4-((2-(dimethylamino)ethyl)(methyl)amino)-2-methoxyphenyl)amino)pyrimidin-4-yl)-1H-indole-3-carboxamide hydrochloride], the IC50 in test [1] amounted to 0.0575 µM; in test [2], 0.0395 µM.

Regarding `C=CC(=O)Nc1cc(Nc2ncc(Cl)c(-n3cc(C(C)=O)c4ccccc43)n2)c(OC)cc1N(C)CCN(C)C` [Example 73, N-(5-(4-(3-Acetyl-1H-indol-1-yl)-5-chloropyrimidin-2-ylamino)-2-((2-(dimethylamino)ethyl)(methyl)amino)-4-methoxyphenyl) acrylamide], the half-inhibitory concentration (IC50) was 0.426 µM in the test on A431 cells (WT); 0.0126 µM in the test on H1975 cells (DM) (Homo sapiens, NCI-H1975, 72 h); 0.00328 µM in the test on PC9 cells (SM) (Homo sapiens, PC-9, 72 h).

Consider `C=CC(=O)Nc1cc(Nc2nccc(-n3cc(-c4ccn[nH]4)c4ccccc43)n2)c(OC)cc1N(C)CCN(C)C` [Example 74, N-(5-((4-(3-(1H-Pyrazol-3-yl)-1H-indol-1-yl)pyrimidin-2-yl)amino)-2-((2-(dimethylamino)ethyl)(methyl)amino)-4-methoxyphenyl) acrylamide], for which the half-inhibitory concentration (IC50) came to 0.396 µM in the test on A431 cells (WT); 0.028 µM in the test on H1975 cells (DM) (Homo sapiens, NCI-H1975, 72 h); 0.00574 µM in the test with PC9 cells (SM) (Homo sapiens, PC-9, 72 h).

On to `C=CC(=O)Nc1cc(Nc2nccc(-n3cc(-c4cn[nH]c4)c4ccccc43)n2)c(OC)cc1N(C)CCN(C)C` [Example 75, N-(5-((4-(3-(1H-Pyrazol-4-yl)-1H-indol-1-yl)pyrimidin-2-yl)amino)-2-((2-(dimethylamino)ethyl)(methyl)amino)-4-methoxyphenyl) acrylamide], for which the IC50 was 0.439 µM with A431 cells (WT); 0.0895 µM in the test on H1975 cells (DM) (Homo sapiens, NCI-H1975, 72 h); 0.0279 µM in the test with PC9 cells (SM) (Homo sapiens, PC-9, 72 h).

With `C=CC(=O)Nc1cc(Nc2nccc(-n3cc(-c4ccn[nH]4)c4ncccc43)n2)c(OC)cc1N(C)CCN(C)C` [Example 76, N-(5-((4-(3-(1H-Pyrazol-5-yl)-1H-pyrrolo[3,2-b]pyridin-1-yl)pyrimidin-2-yl)amino)-2-((2-(dimethylamino)ethyl)(methyl)amino)-4-methoxyphenyl) acrylamide], the IC50 was 0.152 µM in the test with A431 cells (WT); 0.00227 µM in the test with H1975 cells (DM) (Homo sapiens, NCI-H1975, 72 h); 0.00333 µM in the test on PC9 cells (SM) (Homo sapiens, PC-9, 72 h).

Usually IC50 stands for the concentration that inhibits the measured activity by half.
